Assay results as given in ChEMBL document CHEMBL2311286, “Design and synthesis of alkoxyindolyl-3-acetic acid analogs as peroxisome proliferator-activated receptor-γ/δ agonists” (Bioorg Med Chem Lett, 2013).

How the values were obtained:
[1] = biological target: T1, Peroxisome proliferator-activated receptor alpha (Mus musculus) (UniProt P23204); experiment: Agonist activity at mouse PPARalpha assessed as maximum activation at 10 uM by in vitro functional transactivation assay relative to 1 uM GW0746
T1 sequence (whole entry): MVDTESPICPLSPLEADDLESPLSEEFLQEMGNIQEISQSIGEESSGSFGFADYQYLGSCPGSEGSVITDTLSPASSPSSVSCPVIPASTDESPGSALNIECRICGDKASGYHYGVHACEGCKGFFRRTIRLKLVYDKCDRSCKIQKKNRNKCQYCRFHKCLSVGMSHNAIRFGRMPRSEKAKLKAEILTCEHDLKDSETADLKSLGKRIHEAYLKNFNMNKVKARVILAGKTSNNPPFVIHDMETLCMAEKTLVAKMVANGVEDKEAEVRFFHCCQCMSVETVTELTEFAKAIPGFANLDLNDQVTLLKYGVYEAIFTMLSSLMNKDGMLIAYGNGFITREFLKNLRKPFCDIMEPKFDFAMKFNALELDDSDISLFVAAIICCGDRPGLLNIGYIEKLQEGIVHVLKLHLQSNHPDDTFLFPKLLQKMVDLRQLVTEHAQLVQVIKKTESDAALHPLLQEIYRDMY

[2] = biological target: T2, Peroxisome proliferator-activated receptor delta (Mus musculus) (UniProt P35396); experiment: Agonist activity at mouse PPARdelta assessed as maximum activation at 10 uM by in vitro functional transactivation assay relative to 0.1 uM GW0742
T2 sequence (whole entry): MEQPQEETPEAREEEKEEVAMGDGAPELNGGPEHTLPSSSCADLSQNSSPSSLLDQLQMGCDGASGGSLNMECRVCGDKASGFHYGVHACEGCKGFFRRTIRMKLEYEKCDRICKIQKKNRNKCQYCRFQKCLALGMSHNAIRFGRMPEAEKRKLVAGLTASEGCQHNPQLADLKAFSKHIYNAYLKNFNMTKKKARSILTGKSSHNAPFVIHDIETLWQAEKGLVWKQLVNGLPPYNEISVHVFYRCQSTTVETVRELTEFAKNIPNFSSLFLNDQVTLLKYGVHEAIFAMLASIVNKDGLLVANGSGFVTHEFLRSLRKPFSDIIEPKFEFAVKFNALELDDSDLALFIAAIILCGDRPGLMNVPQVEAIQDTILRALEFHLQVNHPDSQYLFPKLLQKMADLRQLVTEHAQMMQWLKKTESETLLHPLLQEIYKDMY

[3] = biological target: T3, Peroxisome proliferator-activated receptor gamma (Mus musculus) (UniProt P37238); experiment: Agonist activity at mouse PPARgamma assessed as maximum activation at 10 uM by in vitro functional transactivation assay relative to 1 uM rosiglitazone
T3 sequence (whole entry): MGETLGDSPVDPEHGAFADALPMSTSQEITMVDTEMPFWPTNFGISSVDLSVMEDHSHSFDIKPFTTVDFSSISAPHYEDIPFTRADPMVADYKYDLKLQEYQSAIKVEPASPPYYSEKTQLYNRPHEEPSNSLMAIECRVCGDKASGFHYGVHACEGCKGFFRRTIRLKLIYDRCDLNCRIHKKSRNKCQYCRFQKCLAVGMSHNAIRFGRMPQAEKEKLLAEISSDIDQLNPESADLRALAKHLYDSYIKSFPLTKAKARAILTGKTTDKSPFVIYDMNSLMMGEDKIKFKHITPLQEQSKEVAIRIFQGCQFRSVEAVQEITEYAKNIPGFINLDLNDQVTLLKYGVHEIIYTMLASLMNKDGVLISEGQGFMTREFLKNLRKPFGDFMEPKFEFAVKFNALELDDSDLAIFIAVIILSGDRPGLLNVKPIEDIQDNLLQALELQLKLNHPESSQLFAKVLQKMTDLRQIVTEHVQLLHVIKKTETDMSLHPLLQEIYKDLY

Row | Compound | %max [1] | %max [2] | %max [3]
1 | O=C(O)Cc1cn(Cc2ccccc2)c2cc(OCCCN3c4ccccc4Oc4ccccc43)ccc12 | < 10% | 27.3% | < 10%
2 | O=C(O)Cc1cn(Cc2ccccc2)c2ccc(OCCCN3c4ccccc4Oc4ccccc43)cc12 | 12.8% | 21.7% | 43.1%
3 | O=C(O)Cc1cn(Cc2ccccc2)c2ccc(OCCCn3c4ccccc4c4ccccc43)cc12 | < 10% | 41.3% | 28.7%
4 | O=C(O)Cc1cn(Cc2ccc(F)cc2)c2cc(OCCCN3c4ccccc4Oc4ccccc43)ccc12 | < 10% | 36.6% | 23.8%
5 | O=C(O)Cc1c[nH]c2ccc(OCCCn3c4ccccc4c4ccccc43)cc12 | 10.1% | 10.5% | < 10%
6 | O=C(O)Cc1cn(Cc2ccccc2)c2cc(OCCCn3c4ccccc4c4ccccc43)ccc12 | < 10% | < 10% | < 10%

Now from value to molecule:

Row | %max [1] | %max [2] | %max [3] | Compound
7 | < 10% | < 10% | < 10% | O=C(O)Cc1c[nH]c2cc(OCCCn3c4ccccc4c4ccccc43)ccc12
8 | < 10% | < 10% | < 10% | O=C(O)Cc1c[nH]c2cc(OCCCN3c4ccccc4Oc4ccccc43)ccc12
9 | < 10% | 16% | 29.4% | O=C(O)Cc1c[nH]c2ccc(OCCCN3c4ccccc4Oc4ccccc43)cc12
